Source: patent publication US20240208942A1, “METAP-2 INHIBITORS, PHARMACEUTICAL COMPOSITIONS AND THERAPEUTIC METHODS THEREOF” (CANWELL BIOTECH LIMITED, priority 2021, published 2024)

What follows are compounds tested against T1, recombinant human MetAP-2 (Homo sapiens, UniProt P50579) (assay: Enzymatic activity assay of Methionine aminopeptidase 2 (enzyme coupled assay, Met-Ala-Ser substrate)). Details: recombinant human MetAP-2 (His-Tev-MetAP-2), absorbance at 450 nm, kinetic mode, read-out: MeAP2 IC50.
T1 construct: His tag (N); TEV cleavage site (N); made in house
T1 sequence (P50579 whole entry): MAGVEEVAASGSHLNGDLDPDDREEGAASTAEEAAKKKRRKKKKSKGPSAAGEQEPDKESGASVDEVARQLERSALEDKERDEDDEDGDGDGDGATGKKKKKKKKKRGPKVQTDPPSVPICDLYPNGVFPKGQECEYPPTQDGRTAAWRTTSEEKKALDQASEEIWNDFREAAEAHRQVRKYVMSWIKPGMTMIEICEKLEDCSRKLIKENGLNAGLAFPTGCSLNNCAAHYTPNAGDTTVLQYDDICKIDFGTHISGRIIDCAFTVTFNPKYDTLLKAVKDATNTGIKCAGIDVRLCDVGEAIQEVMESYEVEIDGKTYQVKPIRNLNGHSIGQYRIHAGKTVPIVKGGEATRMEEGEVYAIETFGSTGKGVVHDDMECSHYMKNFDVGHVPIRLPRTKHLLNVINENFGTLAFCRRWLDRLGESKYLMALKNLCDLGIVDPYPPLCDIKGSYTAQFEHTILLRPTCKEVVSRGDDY
Format: biochemical
Experimental: The MetAP-2 activity was determined by an enzyme coupled assay using the tripeptide Met-Ala-Ser (MAS) as substrate and recombinant human MetAP-2 (His-Tev-MetAP-2, prepared in-house). The released methionine is converted by L-amino acid oxidase (AAO) to Met ox and hydrogen peroxide is released. In a second step horse radish peroxidase catalyses the oxidation of the leuko dye dianisidine to dianisidine ox with hydrogen peroxide as co-substrate. The produced dianisidine ox was detected photometrically as increase in absorbance at 450 nm. MetAP-2 activity was determined in a kinetic measurement mode. The release of one molecule methionine corresponds to the production of one molecule dianisidine ox. The MetAP-2 enzymatic activity is directly corresponding to the increase in absorbance per time.
In the case of `CP(C)(=O)c1ccc(N2CC[C@@](O)(C(=O)NCc3cc(F)cc(F)c3)C2=O)cc1` [Compound 1a, (R)-N-(3,5-difluorobenzyl)-1-(4-(dimethylphosphoryl)phenyl)-3-hydroxy-2-oxopyrrolidine-3-car boxamide], the IC50 is reported as 1000 to 10000 nM. `CC(C)P(=O)(c1ccc(N2CC[C@](O)(C(=O)NCc3cc(F)cc(F)c3)C2=O)cc1)C(C)C` [Compound 4, (S)-N-(3,5-difluorobenzyl)-1-(4-(diisopropylphosphoryl)phenyl)-3-hydroxy-2-oxopyrrolidine-3-carboxamide] showed an IC50 of less than 1000 nM. Work on `O=C(NCc1cc(F)cc(Cl)c1)[C@@]1(O)CCN(c2ccc(P(=O)(C3CC3)C3CC3)cc2)C1=O` [Compound 8, (S)-N-(3-chloro-5-fluorobenzyl)-1-(4-(dicyclopropylphosphoryl)phenyl)-3-hydroxy-2-oxopy rrolidine-3-carboxamide] yielded an IC50 of less than 1000 nM. For `O=C(NCc1cc(F)cc(F)c1)[C@@]1(O)CCN(c2ccc3c(c2)C2(CCC2)S(=O)(=O)N3)C1=O` [Compound 18, (S)-N-(3,5-difluorobenzyl)-1-(2,2-dioxido-1H-spiro[benzo[c]isothiazole-3,1′-cyclobutan]-5-y 1)-3-hydroxy-2-oxopyrrolidine-3-carboxamide], the IC50 was less than 1000 nM. Compound `O=C1Nc2ccc(N3CC[C@](O)(C(=O)NCc4cc(F)cc(F)c4)C3=O)cc2C12CCCC2` [Compound 15, (S)-N-(3,5-difluorobenzyl)-3-hydroxy-2-oxo-1-(2′-oxospiro[cyclopentane-1,3′-indoline]-5′-yl)pyrrolidine-3-carboxamide] has an IC50 of less than 1000 nM. Compound `NC(=O)c1cc2cc(N3CCC(O)(C(=O)NCc4cc(F)cc(F)c4)C3=O)sc2[nH]1` (stereo not drawn) [Compound 23, 2-(3-(3,5-difluorobenzylcarbamoyl)-3-hydroxy-2-oxopyrrolidin-1-yl)-6H-thieno[2,3-b]pyrro 1e-5-carboxamide] has an IC50 of less than 1000 nM. `CP(C)(=O)c1cccc(N2CC[C@@](O)(C(=O)NCc3cc(F)cc(F)c3)C2=O)c1` [Compound 2a] showed an IC50 of 1000 to 10000 nM. With `CC(C)P(=O)(c1ccc(N2CC[C@@](O)(C(=O)NCc3cc(F)cc(F)c3)C2=O)cc1)C(C)C` [Compound 4a] the IC50 was less than 1000 nM. Compound `O=C(NCc1cc(F)cc(Cl)c1)[C@]1(O)CCN(c2ccc(P(=O)(C3CC3)C3CC3)cc2)C1=O` [Compound 8a] has an IC50 of 1000 to 10000 nM. `O=C(NCc1cc(F)cc(F)c1)[C@@]1(O)CCN(c2ccc(P(=O)(C3CC3)C3CC3)cc2)C1=O` [Compound 10, (S)-1-(4-(dicyclopropylphosphoryl)phenyl)-N-(3,5-difluorobenzyl)-3-hydroxy-2-oxopyrrolidine-3-carboxamide] gave an IC50 of less than 1000 nM. In the case of `CC(C)P(=O)(c1ccc(N2CC[C@@](O)(C(=O)NCc3cc(F)cc(Cl)c3)C2=O)cc1)C(C)C` [Compound 7a], the IC50 is reported as greater than 10000 nM. Work on `O=C1Nc2ccc(N3CC[C@@](O)(C(=O)NCc4cc(F)cc(Cl)c4)C3=O)cc2C12CC2` [Compound 13a] yielded an IC50 of 1000 to 10000 nM. With `CCP(=O)(CC)c1ccc(N2CC[C@@](O)(C(=O)NCc3cc(F)cc(F)c3)C2=O)cc1` [Compound 3a] the IC50 was 1000 to 10000 nM. `CP(C)(=O)c1ccc(N2CC[C@@](O)(C(=O)NCc3cc(F)cc(F)c3)C2=O)cn1` [Compound 6a] gave an IC50 greater than 10000 nM. Compound `CP(C)(=O)c1ccc(N2CC[C@](O)(C(=O)NCc3cc(F)cc(F)c3)C2=O)cn1` [Compound 6, (S)-N-(3,5-difluorobenzyl)-1-(6-(dimethylphosphoryl)pyridin-3-yl)-3-hydroxy-2-oxopyrrolidine-3-carboxamide] has an IC50 of less than 1000 nM. `CP(C)(=O)c1cccc(N2CC[C@](O)(C(=O)NCc3cc(F)cc(F)c3)C2=O)c1` [Compound 2, (S)-N-(3,5-difluorobenzyl)-1-(3-(dimethylphosphoryl)phenyl)-3-hydroxy-2-oxopyrrolidine-3-carboxamide] showed an IC50 of less than 1000 nM. `C[Si](C)(C)c1ccc(N2CC[C@](O)(C(=O)NCc3cc(F)cc(F)c3)C2=O)cc1` [Compound 11, (S)-N-(3,5-difluorobenzyl)-3-hydroxy-2-oxo-1-(4-(trimethylsilyl)phenyl)pyrrolidine-3-carbo xamide] gave an IC50 of less than 1000 nM. Compound `O=C1Nc2ccc(N3CC[C@](O)(C(=O)NCc4cc(F)cc(Cl)c4)C3=O)cc2C12CCC2` [Compound 14, (S)-N-(3-chloro-5-fluorobenzyl)-3-hydroxy-2-oxo-1-(2′-oxospiro[cyclobutane-1,3′-indoline]-5′-yl)pyrrolidine-3-carboxamide] has an IC50 of less than 1000 nM. `O=C(NCc1cc(F)cc(Cl)c1)C1(O)CCN(c2ccc(P(=O)(C3CCC3)C3CCC3)cc2)C1=O` (racemic) [Compound 5-7] gave an IC50 of less than 1000 nM. In the case of `CP(C)(=O)c1ccc(N2CC[C@](O)(C(=O)NCc3cc(F)cc(Cl)c3)C2=O)cc1` [Compound 9, (S)-N-(3-chloro-5-fluorobenzyl)-1-(4-(dimethylphosphoryl)phenyl)-3-hydroxy-2-oxopyrrolidine-3-carboxamide], the IC50 is reported as less than 1000 nM. With `CP(C)(=O)c1ccc(N2CC[C@@](O)(C(=O)NCc3cc(F)cc(Cl)c3)C2=O)cc1` [Compound 9a] the IC50 was less than 1000 nM. `O=C(NCc1cc(F)cc(Cl)c1)[C@@]1(O)CCN(c2ccc(P(=O)(C3CCC3)C3CCC3)cc2)C1=O` [Compound 5, (S)-N-(3-chloro-5-fluorobenzyl)-1-(4-(dicyclobutylphosphoryl)phenyl)-3-hydroxy-2-oxopyrr olidine-3-carboxamide] showed an IC50 of less than 1000 nM. `O=C1Nc2ncc(N3CC[C@](O)(C(=O)NCc4cc(F)cc(Cl)c4)C3=O)cc2C12CC2` [Compound 17, (S)-N-(3-chloro-5-fluorobenzyl)-3-hydroxy-2-oxo-1-(2′-oxo-1′,2′-dihydrospiro[cyclopropane-1,3′-pyrrolo[2,3-b]pyridine]-5′-yl)pyrrolidine-3-carboxamide] was tested, and the IC50 was less than 1000 nM. For `O=C(NCc1cc(F)cc(F)c1)[C@@]1(O)CCN(c2ccc3c(c2)C2(CC2)CN3)C1=O` [Compound 12, (S)-N-(3,5-difluorobenzyl)-3-hydroxy-2-oxo-1-(spiro[cyclopropane-1,3′-indoline]-5′-yl)pyrr olidine-3-carboxamide], the IC50 was less than 1000 nM. In the case of `O=C1Nc2ccc(N3CC[C@](O)(C(=O)NCc4cc(F)cc(F)c4)C3=O)cc2C12CC2` [Compound 16, (S)-N-(3,5-difluorobenzyl)-3-hydroxy-2-oxo-1-(2′-oxospiro[cyclopropane-1,3′-indoline]-5′-yl)pyrrolidine-3-carboxamide], the IC50 is reported as less than 1000 nM. `O=C(NCc1cc(F)cc(Cl)c1)[C@]1(O)CCN(c2ccc(P(=O)(C3CCC3)C3CCC3)cc2)C1=O` [Compound 5a] was tested, and the IC50 was 1000 to 10000 nM. Compound `CP(C)(=O)c1ccc(N2CC[C@](O)(C(=O)NCc3cc(F)cc(F)c3)C2=O)cc1` [Compound 1, (S)-N-(3,5-difluorobenzyl)-1-(4-(dimethylphosphoryl)phenyl)-3-hydroxy-2-oxopyrrolidine-3-arboxamide] has an IC50 of less than 1000 nM. `O=C(NCc1cc(F)cc(Cl)c1)[C@@]1(O)CCN(c2ccc3c(c2)C2(CCC2)S(=O)(=O)N3)C1=O` [Compound 19, (S)-N-(3-chloro-5-fluorobenzyl)-1-(2,2-dioxido-1H-spiro[benzo[c]isothiazole-3,1′-cyclobutan]-5-yl)-3-hydroxy-2-oxopyrrolidine-3-carboxamide] was tested, and the IC50 was less than 1000 nM. In the case of `O=C(NCc1cc(F)cc(Cl)c1)[C@@]1(O)CCN(c2ccc3c(c2)C2(CC2)S(=O)(=O)N3)C1=O` [Compound 20, (S)-N-(3-chloro-5-fluorobenzyl)-1-(2,2-dioxido-1H-spiro[benzo[c]isothiazole-3,1′-cyclopropan]-5-yl)-3-hydroxy-2-oxopyrrolidine-3-carboxamide], the IC50 is reported as less than 1000 nM. For `CCP(=O)(CC)c1ccc(N2CC[C@](O)(C(=O)NCc3cc(F)cc(F)c3)C2=O)cc1` [Compound 3, (S)-1-(4-(diethylphosphoryl)phenyl)-N-(3,5-difluorobenzyl)-3-hydroxy-2-oxopyrrolidine-3-c arboxamide], the IC50 was less than 1000 nM. `O=C1Nc2ccc(N3CC[C@](O)(C(=O)NCc4cc(F)cc(Cl)c4)C3=O)cc2C12CC2` [Compound 13, (S)-N-(3-chloro-5-fluorobenzyl)-3-hydroxy-2-oxo-1-(2′-oxospiro[cyclopropane-1,3′-indoline]-5′-yl)pyrrolidine-3-carboxamide] was tested, and the IC50 was less than 1000 nM. `CC(C)P(=O)(c1ccc(N2CC[C@](O)(C(=O)NCc3cc(F)cc(Cl)c3)C2=O)cc1)C(C)C` [Compound 7, (S)-N-(3-chloro-5-fluorobenzyl)-1-(4-(diisopropylphosphoryl)phenyl)-3-hydroxy-2-oxopyrr olidine-3-carboxamide] gave an IC50 of less than 1000 nM. `O=C(NCc1cc(F)cc(F)c1)[C@]1(O)CCN(c2ccc(P(=O)(C3CC3)C3CC3)cc2)C1=O` [Compound 10a] gave an IC50 of 1000 to 10000 nM.
